Test results from ChEMBL document CHEMBL1142857, “A new class of high affinity thyromimetics containing a phenyl-naphthylene core” (Bioorg Med Chem Lett, 2005).

Tests used:
[1] = molecular target: T1, Thyroid hormone receptor alpha (Homo sapiens, UniProt P10827)
T1 sequence (P10827 whole entry): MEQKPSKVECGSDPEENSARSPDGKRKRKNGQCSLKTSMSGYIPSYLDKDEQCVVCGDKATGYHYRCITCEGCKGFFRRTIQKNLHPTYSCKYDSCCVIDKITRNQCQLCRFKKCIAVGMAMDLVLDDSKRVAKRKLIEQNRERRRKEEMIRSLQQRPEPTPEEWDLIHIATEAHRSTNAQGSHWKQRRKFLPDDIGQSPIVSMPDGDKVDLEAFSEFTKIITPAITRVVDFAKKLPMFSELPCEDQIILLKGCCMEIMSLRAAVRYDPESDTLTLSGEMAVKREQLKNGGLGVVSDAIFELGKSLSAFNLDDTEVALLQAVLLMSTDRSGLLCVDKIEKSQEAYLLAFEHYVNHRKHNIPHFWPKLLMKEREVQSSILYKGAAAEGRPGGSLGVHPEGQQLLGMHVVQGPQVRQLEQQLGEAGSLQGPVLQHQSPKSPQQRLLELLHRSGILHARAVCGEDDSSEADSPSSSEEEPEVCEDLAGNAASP

[2] = molecular target: T2, Thyroid hormone receptor beta (Homo sapiens, UniProt P10828)
T2 sequence (P10828 whole entry): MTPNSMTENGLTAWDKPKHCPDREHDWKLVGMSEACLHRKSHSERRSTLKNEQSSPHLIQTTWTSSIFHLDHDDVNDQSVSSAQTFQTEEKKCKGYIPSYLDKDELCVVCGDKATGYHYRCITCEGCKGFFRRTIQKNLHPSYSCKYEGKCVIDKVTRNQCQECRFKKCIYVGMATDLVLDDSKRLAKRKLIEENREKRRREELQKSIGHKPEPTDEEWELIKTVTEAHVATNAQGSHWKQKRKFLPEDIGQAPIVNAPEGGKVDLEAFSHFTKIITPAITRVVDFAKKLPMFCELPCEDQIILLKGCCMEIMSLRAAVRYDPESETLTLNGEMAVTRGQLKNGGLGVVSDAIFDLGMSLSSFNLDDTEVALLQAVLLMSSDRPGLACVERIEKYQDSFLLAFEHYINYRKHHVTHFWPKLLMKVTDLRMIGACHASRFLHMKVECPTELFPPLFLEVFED
Description: Inhibitory concentration against cloned human thyroid hormone receptor beta 1

[3] = molecular target: T1, Thyroid hormone receptor alpha; assay: Inhibitory concentration against cloned human thyroid hormone receptor alpha 1

O=C(O)CC(=O)Nc1cc(Cl)c(-c2cccc3c(Br)c(O)ccc23)c(Cl)c1
IC50 [1]: 0.0043 µM | IC50 [2]: 0.0003 µM

COc1ccc2c(-c3c(Cl)cc(NC(=O)CC(=O)O)cc3Cl)cccc2c1C(C)C
IC50 [1]: 0.014 µM | IC50 [2]: 0.0003 µM

O=C(O)Nc1cc(Cl)c(-c2cccc3c(-c4ccccc4)c(O)ccc23)c(Cl)c1
IC50 [1]: 0.125 µM | IC50 [2]: 0.029 µM

O=C(O)Cc1cc(Cl)c(-c2cccc3c(Br)c(O)ccc23)c(Cl)c1
IC50 [1]: 0.101 µM | IC50 [2]: 0.013 µM

O=C(O)CCC(=O)Nc1cc(Cl)c(-c2cccc3c(Br)c(O)ccc23)c(Cl)c1
IC50 [1]: 0.062 µM | IC50 [2]: 0.022 µM

O=C(O)CCNc1cc(Cl)c(-c2cccc3c(Br)c(O)ccc23)c(Cl)c1
IC50 [1]: 0.013 µM | IC50 [2]: 0.0018 µM

Cc1c(O)ccc2c(-c3c(Cl)cc(NC(=O)O)cc3Cl)cccc12
IC50 [1]: 0.048 µM | IC50 [2]: 0.0072 µM

O=C(O)Cc1cc(Cl)c(Oc2ccc(O)cc2)c(Cl)c1
IC50 [1]: 3.6 µM | IC50 [2]: 2.14 µM

O=C(O)CNc1cc(Cl)c(-c2cccc3c(Br)c(O)ccc23)c(Cl)c1
IC50 [1]: 0.019 µM | IC50 [2]: 0.0018 µM

O=C(O)C(=O)Nc1cc(Cl)c(-c2cccc3c(Br)c(O)ccc23)c(Cl)c1
IC50 [1]: 0.0054 µM | IC50 [2]: 0.0003 µM

O=C(O)Cc1cc(Cl)c(-c2cccc3cc(O)ccc23)c(Cl)c1
IC50 [3]: 1.54 µM | IC50 [2]: 0.545 µM

O=C(O)Cc1cc(Cl)c(Oc2ccc(O)c(Br)c2)c(Cl)c1
IC50 [1]: 0.109 µM | IC50 [2]: 0.009 µM
